Laboratory results reported in US9539260B2, “Dihydro-benzo-oxazine and dihydro-pyrido-oxazine derivatives” (Novartis AG, priority 2012, dated 2017).

Legend:
PI3K delta = PI3K delta (Homo sapiens (Human), UniProt O00329); assay: Enzymatic PI3K delta isoform inhibition (lipid kinase activity, Kinase-Glo luminescence); format: biochemical; details: Enzymatic assay
Procedure, shortened: (§1)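 IC50s derive from 4-parameter logistic fits of % inhibition across 8 concentrations (usually 10 to 0.003 μM). Lipid kinase reaction: PI3K (10 nM) plus phosphatidylinositol (5 μg/mL) started with 2 μM ATP, stopped near 50% ATP depletion; leftover ATP quantified by Kinase-Glo luminescence.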

PI3K alpha = PI3K alpha (Homo sapiens (Human), UniProt P42336); assay: Enzymatic PI3K alpha isoform inhibition (lipid kinase activity, Kinase-Glo luminescence); format: biochemical; details: Enzymatic assay
Procedure, shortened: as §1

Chain of PI3K delta (O00329 other isoform, or with tags, fused parts or gaps linker GGGGGG): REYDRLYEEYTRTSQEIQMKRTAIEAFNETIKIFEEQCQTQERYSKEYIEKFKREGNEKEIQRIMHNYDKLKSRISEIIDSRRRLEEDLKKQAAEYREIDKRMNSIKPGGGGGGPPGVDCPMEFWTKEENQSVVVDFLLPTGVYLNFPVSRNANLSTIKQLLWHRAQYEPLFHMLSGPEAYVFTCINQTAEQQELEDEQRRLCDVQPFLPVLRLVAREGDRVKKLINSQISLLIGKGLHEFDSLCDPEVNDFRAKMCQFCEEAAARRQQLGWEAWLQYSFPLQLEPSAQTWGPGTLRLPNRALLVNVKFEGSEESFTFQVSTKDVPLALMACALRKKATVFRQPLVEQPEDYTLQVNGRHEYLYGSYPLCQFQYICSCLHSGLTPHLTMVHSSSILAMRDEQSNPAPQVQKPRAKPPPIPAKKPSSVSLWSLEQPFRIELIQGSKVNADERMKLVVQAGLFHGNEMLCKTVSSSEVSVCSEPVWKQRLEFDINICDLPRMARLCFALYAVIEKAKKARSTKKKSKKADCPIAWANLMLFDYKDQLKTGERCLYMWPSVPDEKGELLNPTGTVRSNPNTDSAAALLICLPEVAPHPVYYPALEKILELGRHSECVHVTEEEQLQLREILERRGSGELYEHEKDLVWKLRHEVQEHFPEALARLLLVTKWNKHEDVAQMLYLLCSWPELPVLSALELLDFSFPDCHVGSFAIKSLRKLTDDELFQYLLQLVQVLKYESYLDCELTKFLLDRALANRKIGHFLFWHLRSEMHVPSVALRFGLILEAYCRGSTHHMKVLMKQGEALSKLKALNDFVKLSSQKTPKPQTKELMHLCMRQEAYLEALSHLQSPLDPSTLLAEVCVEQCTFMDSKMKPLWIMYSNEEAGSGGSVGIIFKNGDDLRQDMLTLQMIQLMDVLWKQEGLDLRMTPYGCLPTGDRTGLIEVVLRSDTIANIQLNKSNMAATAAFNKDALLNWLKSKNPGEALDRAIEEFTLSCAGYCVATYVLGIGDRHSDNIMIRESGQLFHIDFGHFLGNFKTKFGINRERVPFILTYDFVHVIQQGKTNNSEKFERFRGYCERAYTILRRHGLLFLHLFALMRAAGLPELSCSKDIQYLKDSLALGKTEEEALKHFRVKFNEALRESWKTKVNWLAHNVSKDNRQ
Chain of PI3K alpha (P42336 other isoform, or with tags, fused parts or gaps): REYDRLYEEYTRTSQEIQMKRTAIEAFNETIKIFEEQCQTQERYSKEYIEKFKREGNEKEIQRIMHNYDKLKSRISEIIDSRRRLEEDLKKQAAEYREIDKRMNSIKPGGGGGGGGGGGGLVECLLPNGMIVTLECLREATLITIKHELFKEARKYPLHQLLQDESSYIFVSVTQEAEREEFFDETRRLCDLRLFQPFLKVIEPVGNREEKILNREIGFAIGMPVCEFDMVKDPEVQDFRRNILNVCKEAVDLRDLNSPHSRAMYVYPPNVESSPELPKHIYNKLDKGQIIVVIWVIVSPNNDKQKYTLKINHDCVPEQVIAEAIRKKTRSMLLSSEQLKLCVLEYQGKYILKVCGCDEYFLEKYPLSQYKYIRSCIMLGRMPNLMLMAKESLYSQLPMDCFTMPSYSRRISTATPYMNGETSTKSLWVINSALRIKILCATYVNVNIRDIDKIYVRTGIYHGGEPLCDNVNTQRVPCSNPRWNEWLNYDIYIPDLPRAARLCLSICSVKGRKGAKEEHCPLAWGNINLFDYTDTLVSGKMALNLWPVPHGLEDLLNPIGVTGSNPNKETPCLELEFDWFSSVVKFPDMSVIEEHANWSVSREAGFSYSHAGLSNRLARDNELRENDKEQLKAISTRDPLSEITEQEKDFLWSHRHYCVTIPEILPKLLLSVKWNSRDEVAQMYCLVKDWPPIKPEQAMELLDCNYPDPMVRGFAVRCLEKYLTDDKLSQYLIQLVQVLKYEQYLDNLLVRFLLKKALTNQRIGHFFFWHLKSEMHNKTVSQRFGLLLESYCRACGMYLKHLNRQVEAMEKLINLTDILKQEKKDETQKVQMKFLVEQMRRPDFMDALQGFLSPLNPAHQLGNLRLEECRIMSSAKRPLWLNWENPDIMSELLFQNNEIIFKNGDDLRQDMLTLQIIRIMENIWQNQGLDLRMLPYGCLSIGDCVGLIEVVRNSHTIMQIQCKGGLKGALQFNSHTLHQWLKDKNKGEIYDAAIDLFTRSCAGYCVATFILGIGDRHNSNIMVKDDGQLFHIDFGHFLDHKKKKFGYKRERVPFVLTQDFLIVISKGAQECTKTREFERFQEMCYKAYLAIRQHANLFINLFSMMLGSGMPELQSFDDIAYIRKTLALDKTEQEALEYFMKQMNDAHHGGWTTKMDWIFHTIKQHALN

| SMILES | IC50 (PI3K delta) [nM] | IC50 (PI3K alpha) [nM] |
| --- | --- | --- |
| COc1ncc(N2CCOc3ccc(O[C@H]4CCN(C(=O)c5cn[nH]c5)C4)cc32)cc1C#N [Example C10, 2-Methoxy-5-{6-[(S)-1-(1H-pyrazole-4-carbonyl)-pyrrolidin-3-yloxy]-2,3-dihydro-benzo[1,4]oxazin-4-yl}-nicotinonitrile] | 15 | 147 |
| COc1ncc(N2CCOc3ccc(O[C@H]4CCN(C(=O)CS(C)(=O)=O)C4)cc32)cc1C#N [Example C11, 5-{6-[(S)-1-(2-Methanesulfonyl-acetyl)-pyrrolidin-3-yloxy]-2,3-dihydro-benzo[1,4]oxazin-4-yl}-2-methoxy-nicotinonitrile] | 23 | 353 |
| COc1ncc(N2CCOc3ccc(O[C@H]4CCN(C(=O)c5nnc(C)o5)C4)cc32)cc1C#N [Example C12, 2-Methoxy-5-{6-[(S)-1-(5-methyl-[1,3,4]oxadiazole-2-carbonyl)-pyrrolidin-3-yloxy]-2,3-dihydro-benzo[1,4]oxazin-4-yl}-nicotinonitrile] | 116 | 303 |
| COc1ncc(N2CCOc3ccc(O[C@H]4CCN(C(=O)c5cncnc5)C4)cc32)cc1C#N [Example C13, 2-Methoxy-5-{6-[(S)-1-(pyrimidine-5-carbonyl)-pyrrolidin-3-yloxy]-2,3-dihydro-benzo[1,4]oxazin-4-yl}-nicotinonitrile] | 77 | 667 |
| COc1ncc(N2CCOc3ccc(O[C@H]4CCN(C(=O)c5cncs5)C4)cc32)cc1C#N [Example C14, 2-Methoxy-5-{6-[(S)-1-(thiazole-5-carbonyl)-pyrrolidin-3-yloxy]-2,3-dihydro-benzo[1,4]oxazin-4-yl}-nicotinonitrile] | 5 | 250 |
| COc1ncc(N2CCOc3ccc(O[C@H]4CCN(C(=O)c5cnccn5)C4)cc32)cc1C#N [Example C15, 2-Methoxy-5-{6-[(S)-1-(pyrazine-2-carbonyl)-pyrrolidin-3-yloxy]-2,3-dihydro-benzo[1,4]oxazin-4-yl}-nicotinonitrile] | 17 | 383 |
| COc1ncc(N2CCOc3ccc(O[C@H]4CCN(C(=O)c5cccnc5)C4)cc32)cc1C#N [Example C16, 2-Methoxy-5-{6-[(S)-1-(pyridine-3-carbonyl)-pyrrolidin-3-yloxy]-2,3-dihydro-benzo[1,4]oxazin-4-yl}-nicotinonitrile] | 15 | 478 |
| COc1ncc(N2CCOc3ccc(O[C@H]4CCN(C(=O)c5ccncc5)C4)cc32)cc1C#N [Example C17, 2-Methoxy-5-{6-[(S)-1-(pyridine-4-carbonyl)-pyrrolidin-3-yloxy]-2,3-dihydro-benzo[1,4]oxazin-4-yl}-nicotinonitrile] | 8 | 358 |
| COc1ncc(N2CCOc3ccc(O[C@H]4CCN(C(=O)c5cn(C)nc5C)C4)cc32)cc1C#N [Example C18, 5-{6-[(S)-1-(1,3-Dimethyl-1H-pyrazole-4-carbonyl)-pyrrolidin-3-yloxy]-2,3-dihydro-benzo[1,4]oxazin-4-yl}-2-methoxy-nicotinonitrile] | 12 | 425 |
| COc1ncc(N2CCOc3ccc(O[C@H]4CCN(C(=O)C5CNC(=O)C5)C4)cc32)cc1C#N (stereo partly drawn) [Example C19, 2-Methoxy-5-{6-[(S)-1-(5-oxo-pyrrolidine-3-carbonyl)-pyrrolidin-3-yloxy]-2,3-dihydro-benzo[1,4]oxazin-4-yl}-nicotinonitrile] | 21 | 488 |
| COc1ncc(N2CCOc3ccc(O[C@H]4CCN(C(=O)c5oc(C)nc5C)C4)cc32)cc1C#N [Example C20, 5-{6-[(S)-1-(2,4-Dimethyl-oxazole-5-carbonyl)-pyrrolidin-3-yloxy]-2,3-dihydro-benzo[1,4]oxazin-4-yl}-2-methoxy-nicotinonitrile] | 6 | 193 |
| COc1ncc(N2CCOc3ccc(O[C@H]4CCN(C(=O)C5=CC(=O)CC(C)(C)O5)C4)cc32)cc1C#N [Example C21, 5-{6-[(S)-1-(6,6-Dimethyl-4-oxo-5,6-dihydro-4H-pyran-2-carbonyl)-pyrrolidin-3-yloxy]-2,3-dihydro-benzo[1,4]oxazin-4-yl}-2-methoxy-nicotinonitrile] | 28 | 698 |
| COc1ncc(N2CCOc3ccc(O[C@H]4CCN(C(=O)c5cnn6cccnc56)C4)cc32)cc1C#N [Example C22, 2-Methoxy-5-{6-[(S)-1-(pyrazolo[1,5-a]pyrimidine-3-carbonyl)-pyrrolidin-3-yloxy]-2,3-dihydro-benzo[1,4]oxazin-4-yl}-nicotinonitrile] | 20 | 202 |
| COc1ncc(N2CCOc3ccc(O[C@H]4CCN(C(=O)C5CCC(=O)N5)C4)cc32)cc1C#N (stereo partly drawn) [Example C23, 2-Methoxy-5-{6-[(S)-1-(5-oxo-pyrrolidine-2-carbonyl)-pyrrolidin-3-yloxy]-2,3-dihydro-benzo[1,4]oxazin-4-yl}-nicotinonitrile] | 32 | 658 |
| COc1ncc(N2CCOc3ccc(O[C@H]4CCN(C(=O)C5COCCO5)C4)cc32)cc1C#N (stereo partly drawn) [Example C24, 5-{6-[(S)-1-([1,4]Dioxane-2-carbonyl)-pyrrolidin-3-yloxy]-2,3-dihydro-benzo[1,4]oxazin-4-yl}-2-methoxy-nicotinonitrile] | 3 | 560 |
| COc1ncc(N2CCOc3ccc(O[C@H]4CCN(C(=O)C5COCCO5)C4)cc32)cc1C#N (stereo partly drawn) [Example C25, 5-{6-[(S)-1-([1,4]Dioxane-2-carbonyl)-pyrrolidin-3-yloxy]-2,3-dihydro-benzo[1,4]oxazin-4-yl}-2-methoxy-nicotinonitrile] | 12.5 | 474 |
| COc1ncc(N2CCOc3ccc(O[C@H]4CCN(C(=O)C5CCCOC5)C4)cc32)cc1C#N (stereo partly drawn) [Example C26, 2-Methoxy-5-{6-[(S)-1-(tetrahydro-pyran-3-carbonyl)-pyrrolidin-3-yloxy]-2,3-dihydro-benzo[1,4]oxazin-4-yl}-nicotinonitrile] | 3220 | 6950 |
| COc1ccc(N2CCOc3ccc(O[C@H]4CCN(C(=O)CN5CCOCC5)C4)cc32)cn1 [Example D2, 1-{(S)-3-[4-(6-Methoxy-pyridin-3-yl)-3,4-dihydro-2H-benzo[1,4]oxazin-6-yloxy]-pyrrolidin-1-yl}-2-morpholin-4-yl-ethanone] | 149 | 2740 |
| COc1ccc(N2CCOc3ccc(O[C@H]4CCN(C(=O)CN(C)C)C4)cc32)cn1 [Example D3, 2-Dimethylamino-1-{(S)-3-[4-(6-methoxy-pyridin-3-yl)-3,4-dihydro-2H-benzo[1,4]oxazin-6-yloxy]-pyrrolidin-1-yl}-ethanone] | 219 | 4420 |
| COc1ncc(N2CCOc3ccc(O[C@H]4CCN(C(=O)C5CCN(C(C)=O)CC5)C4)cc32)cc1C#N [Example D5, 5-{6-[(S)-1-(1-Acetyl-piperidine-4-carbonyl)-pyrrolidin-3-yloxy]-2,3-dihydro-benzo[1,4]oxazin-4-yl}-2-methoxy-nicotinonitrile] | 42 | 802 |
| COc1ncc(N2CCOc3ccc(O[C@H]4CCN(C(=O)CN(C)C)C4)cc32)cc1C#N [Example D6, 5-{6-[(S)-1-(2-Dimethylamino-acetyl)-pyrrolidin-3-yloxy]-2,3-dihydro-benzo[1,4]oxazin-4-yl}-2-methoxy-nicotinonitrile] | 9 | 650 |
| COc1ncc(N2CCOc3ccc(O[C@H]4CCN(C(=O)CC(C)(C)C)C4)cc32)cc1C#N [Example D9, 5-{6-[(S)-1-(3,3-Dimethyl-butyryl)-pyrrolidin-3-yloxy]-2,3-dihydro-benzo[1,4]oxazin-4-yl}-2-methoxy-nicotinonitrile] | 15 | 494 |
| COc1ncc(N2CCOc3ccc(O[C@H]4CCN(C(=O)CC(C)C)C4)cc32)cc1C#N [Example D10, 2-Methoxy-5-{6-[(S)-1-(3-methyl-butyryl)-pyrrolidin-3-yloxy]-2,3-dihydro-benzo[1,4]oxazin-4-yl}-nicotinonitrile] | 62 | 385 |
| COC(=O)N1CC[C@H](Oc2ccc3c(c2)N(c2cnc(OC)c(C#N)c2)CCO3)C1 [Example D11, (S)-3-[4-(5-Cyano-6-methoxy-pyridin-3-yl)-3,4-dihydro-2H-benzo[1,4]oxazin-6-yloxy]-pyrrolidine-1-carboxylic acid methyl ester] | 19 | 442 |
| COCC(=O)N1CC[C@H](Oc2ccc3c(c2)N(c2cnc(OC)c(C#N)c2)CCO3)C1 [Example D12, 2-Methoxy-5-{6-[(S)-1-(2-methoxy-acetyl)-pyrrolidin-3-yloxy]-2,3-dihydro-benzo[1,4]oxazin-4-yl}-nicotinonitrile] | < 3 | 142 |
| COc1ncc(N2CCOc3ccc(O[C@H]4CCN(C(=O)C5CCCCC5)C4)cc32)cc1C#N [Example D13, 5-[6-((S)-1-Cyclohexanecarbonyl-pyrrolidin-3-yloxy)-2,3-dihydro-benzo[1,4]oxazin-4-yl]-2-methoxy-nicotinonitrile] | 5 | 522 |
| COc1ncc(N2CCOc3ccc(O[C@H]4CCN(C(=O)C(C)(C)O)C4)cc32)cc1C#N [Example D15, 5-{6-[(S)-1-(2-Hydroxy-2-methyl-propionyl)-pyrrolidin-3-yloxy]-2,3-dihydro-benzo[1,4]oxazin-4-yl}-2-methoxy-nicotinonitrile] | 58 | 711 |
| COc1ncc(N2CCOc3ccc(O[C@H]4CCN(C(=O)C5CCS(=O)(=O)CC5)C4)cc32)cc1C#N [Example D16, 5-{6-[(S)-1-(1,1-Dioxo-hexahydro-1lambda*6*-thiopyran-4-carbonyl)-pyrrolidin-3-yloxy]-2,3-dihydro-benzo[1,4]oxazin-4-yl}-2-methoxy-nicotinonitrile] | 7 | 503 |
